In experiment [1] the target is FEVP mutant ZF degron fused to EGFP (Homo sapiens, UniProt Q96SW2+Q9UKT9, N149E/Q147F/Q150V/S154P). The experiment is described as follows: Ratiometric EGFP:mCherry flow cytometry degradation assay, 18 h.
Experiment [2] has as its target T1, WEIS-EGFP in 3T3 mouse cells (UniProt Q8C7D2+Q9UKT9, N149E/Q147W/Q150I).
T1 construct: IKZF3 130aa-142aa 170-189aa fused to EGFP; EGFP (fusion partner, via a linker); expressed in transfected cells; host or cells: 3T3 mouse cells, lentivirally transduced with WEIS-EGFP-IRES-mCherry (Artichoke-derived, Addgene #73320)
The experiment is described as follows: EGFP/mCherry flow cytometry degradation assay in 3T3 cells. The following applies: 18 h; compared to human cells. The experiment is classed as cell-based. On the procedure:
It is also noteworthy that this system is not yet optimized for use in mouse cells, as mouse cereblon contains a key V388I mutation that prevents IMiD-induced recruitment of ZF neosubstrates. […] We anticipate that mutations could be introduced to this degron to make it mouse-compatible for future in vivo studies.
Figure S24. Dose response curve for 3T3 mouse cells lentivirally transduced with WEIS-EGFP-
IRES-mCherry incubated with a concentration curve of compound 23 (1pM – 10 μM) for 18 h and
analyzed by flow cytometry.
(1 picture or pasted object on this page, not shown here)

The target in experiment [3] is T2, WEIS-EGFP degron in Jurkat cells (Homo sapiens, UniProt Q96SW2+Q9UKT9, N149E/Q147W/Q150I).
T2 construct: pLVX-Sprout-IKZF3 130-189aa Q147W N149E Q150I (WEIS); expressed in transfected cells
T2 sequence (Q9UKT9 130-189 Q147W/N149E/Q150I): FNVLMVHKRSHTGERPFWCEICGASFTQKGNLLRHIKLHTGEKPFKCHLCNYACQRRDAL
T2 sequence (Q96SW2 whole entry): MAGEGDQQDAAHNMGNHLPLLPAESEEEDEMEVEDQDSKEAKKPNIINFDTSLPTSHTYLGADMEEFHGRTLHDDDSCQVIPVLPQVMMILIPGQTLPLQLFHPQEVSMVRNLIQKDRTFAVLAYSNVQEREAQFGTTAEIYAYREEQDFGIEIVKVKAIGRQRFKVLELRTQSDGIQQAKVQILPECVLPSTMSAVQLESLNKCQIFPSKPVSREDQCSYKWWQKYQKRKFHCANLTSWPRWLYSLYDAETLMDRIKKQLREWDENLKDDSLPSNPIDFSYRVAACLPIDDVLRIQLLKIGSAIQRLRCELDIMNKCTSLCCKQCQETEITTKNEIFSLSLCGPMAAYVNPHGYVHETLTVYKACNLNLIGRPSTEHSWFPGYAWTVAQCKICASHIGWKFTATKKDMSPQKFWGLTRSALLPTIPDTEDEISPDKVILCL
T2 sequence (Q16531 whole entry partner): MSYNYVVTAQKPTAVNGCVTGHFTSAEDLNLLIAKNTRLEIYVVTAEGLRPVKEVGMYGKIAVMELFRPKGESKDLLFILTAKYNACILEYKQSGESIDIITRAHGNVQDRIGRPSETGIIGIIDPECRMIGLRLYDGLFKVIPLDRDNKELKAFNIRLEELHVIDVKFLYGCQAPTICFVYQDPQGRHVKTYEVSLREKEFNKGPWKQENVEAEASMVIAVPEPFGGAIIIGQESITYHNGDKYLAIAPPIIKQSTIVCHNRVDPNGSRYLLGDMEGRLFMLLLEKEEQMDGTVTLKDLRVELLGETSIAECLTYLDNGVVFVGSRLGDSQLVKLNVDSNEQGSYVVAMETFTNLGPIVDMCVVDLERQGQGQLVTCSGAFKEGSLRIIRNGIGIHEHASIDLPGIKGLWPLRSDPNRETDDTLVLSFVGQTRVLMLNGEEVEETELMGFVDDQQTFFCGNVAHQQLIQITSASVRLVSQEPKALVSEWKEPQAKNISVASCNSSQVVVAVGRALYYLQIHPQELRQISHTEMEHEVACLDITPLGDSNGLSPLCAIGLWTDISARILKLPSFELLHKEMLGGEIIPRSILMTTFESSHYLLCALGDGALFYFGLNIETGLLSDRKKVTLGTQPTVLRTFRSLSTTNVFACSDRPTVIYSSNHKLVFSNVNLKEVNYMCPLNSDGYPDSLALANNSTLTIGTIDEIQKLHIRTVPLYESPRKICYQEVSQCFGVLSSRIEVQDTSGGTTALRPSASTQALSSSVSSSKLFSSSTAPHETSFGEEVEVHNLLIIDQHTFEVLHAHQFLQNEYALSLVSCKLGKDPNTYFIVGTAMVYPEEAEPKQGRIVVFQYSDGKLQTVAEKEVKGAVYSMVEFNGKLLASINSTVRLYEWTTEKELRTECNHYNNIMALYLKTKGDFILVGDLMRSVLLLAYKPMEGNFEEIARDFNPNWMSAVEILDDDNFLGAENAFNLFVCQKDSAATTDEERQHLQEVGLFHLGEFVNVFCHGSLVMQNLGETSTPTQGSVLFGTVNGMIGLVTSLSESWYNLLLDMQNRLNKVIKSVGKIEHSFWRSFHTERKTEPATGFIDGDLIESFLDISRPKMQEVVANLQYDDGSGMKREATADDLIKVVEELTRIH
The experiment is described as follows: Time-course EGFP/mCherry flow cytometry degradation assay. It is filed as cell-based. On the procedure:
6 WEIS degron and compound 23 selectivity. Jurkat, ESC, and MM.1S cells were treated for 16 h with the corresponding compound or DMSO control, and the protein abundance was analyzed using multiplexed TMTpro quantification mass spectrometry. […] (A) Jurkat cells were treated with compound 23. (B). Jurkat cells treated with pomalidomide. (C) ESCs were treated with compound 23. (D) ESCs were treated with pomalidomide. (E) MM.1S cells treated with compound 23. […] Values shown are the mean of three biological replicates. WEIS degron and compound 23 kinetic degradation profile. (G) Jurkat cells were transduced with the WEIS-EGFP degron, then incubated with a concentration range of compound 23 (1 pM – 10 μM) for 1–24 h [as shown] and analyzed using flow cytometry. The DMSO-normalized ratiometric values of EGFP/mCherry are shown. (H). The half-maximal (DC50) values from the assay in […] are shown. Mean and SD values are plotted from three biological replicates. […] (J) Jurkat cells were lentivirally transduced with TRIM28 with either N-terminal or C-terminal WEIS degron tag (or untagged control) and HiBit peptide tag, then incubated with a concentration curve of compound 23 (100 pM – 10 μM) for 24 h and analyzed using a HiBit luminescence assay. […] HEK293T cells were lentivirally transduced with one of three POI fusion constructs–NanoLuc, CDK9, or HPRT1–with an N-terminal HA tag and a C-terminal WEIS degron, then incubated with a concentration range of compound 23 (1 nM – 10 μM) for 18 h and analyzed using HA antibody immunoblotting. […] HEK293T cells were lentivirally transduced with NanoLuc with an N-terminal HA tag and a C-terminal WEIS degron, then incubated with a concentration curve of compound 23 (1 nM – 10 μM) for either 6 or 18 h, and analyzed using a NanoGlo luminescence assay. […]
We performed a time-course experiment in which Jurkat cells transduced with the WEIS-EGFP degron were treated with compound 23 at a range of concentrations (1 pM–10 μM) at a selection of time points, and the ratiometric degradation values of EGFP/mCherry were assessed using flow cytometry, as above. […]

The next experiment concerns the target T3, endogenous IKZF1 (Homo sapiens, UniProt Q13422+Q96SW2).
T3 construct: endogenous in cells; host or cells: Jurkat (untransduced for immunostaining; WEIS-EGFP-transduced for the blot)
The experiment can be described thus: Western blot for IKZF1 in WEIS-EGFP Jurkat cells. The following applies: Jurkat transduced with EGFP-WEIS, 18 h. The experiment is classed as cell-based.

Experiment [4] relates to embryonic stem cells (ESCs). The experiment can be described thus: TMTpro quantitative proteomics, 16 h. The following applies: 10 μM.
Procedure: Quantitative proteomics screens were carried out in untransduced Jurkat cells, embryonic stem cells (ESCs), and the multiple myeloma cell line, MM.1S. We used Jurkat cells, as our work up to this point had employed this cell line, and we selected ESCs and MM.1S cells as they express known CRBN neosubstrates, including IKZF1, IKZF3, RAB28, RNF166, SALL4, ZFP91, and ZNF827.
Proteomics - cell lysis and protein digestion
The viability of Jurkat cells was tested after 16-h treatment with corresponding chemicals
viable cells in each condition. Next, ~10^7 cells per condition were collected by centrifugation (1000 rpm), washed twice with ice-cold PBS, and lysed in RIPA buffer [50 mM HEPES pH 7.4, 150 mM NaCl, 1% sodium deoxycholate, 1% NP-40, 0.1% SDS, 10 mM sodium pyrophosphate, 10 mM β-glycerophosphate, 2.5 mM MgCl2, 200 µM TCEP, phosphatase and protease inhibitor cocktail (in-house)], to produce whole cell extracts. Whole-cell extracts were sonicated, and protein concentrations were determined using the Bradford assay. Protein extracts (100 µg) were subjected to disulfide bond reduction with 5 mM TCEP (10 min) and alkylation with 25 mM chloroacetamide (20 min). Methanol–chloroform precipitation was performed prior to protease digestion. […]

We go through two molecules from article PMC12645437, “Orthogonal IMiD-Degron Pairs Induce Selective Protein Degradation in Cells” (ACS Chemical Biology, 2025).

FEVP mutant ZF degron fused to EGFP, sequence (Q9UKT9 130-189 Q147F/N149E/Q150V/S154P): as the sequence (Q9UKT9 130-189 Q147W/N149E/Q150I) above, with W18F, I21V, S25P counted along it
FEVP mutant ZF degron fused to EGFP, sequence (Q96SW2 whole entry, the tested form may be a part): as the sequence (Q96SW2 whole entry) above
FEVP mutant ZF degron fused to EGFP, sequence (Q16531 whole entry partner, the tested form may be a part): as the sequence (Q16531 whole entry partner) above
T1 sequence (Q9UKT9 130-189 Q147W/N149E/Q150I): as the sequence (Q9UKT9 130-189 Q147W/N149E/Q150I) above
T1 sequence (Q8C7D2 whole entry, the tested form may be a part): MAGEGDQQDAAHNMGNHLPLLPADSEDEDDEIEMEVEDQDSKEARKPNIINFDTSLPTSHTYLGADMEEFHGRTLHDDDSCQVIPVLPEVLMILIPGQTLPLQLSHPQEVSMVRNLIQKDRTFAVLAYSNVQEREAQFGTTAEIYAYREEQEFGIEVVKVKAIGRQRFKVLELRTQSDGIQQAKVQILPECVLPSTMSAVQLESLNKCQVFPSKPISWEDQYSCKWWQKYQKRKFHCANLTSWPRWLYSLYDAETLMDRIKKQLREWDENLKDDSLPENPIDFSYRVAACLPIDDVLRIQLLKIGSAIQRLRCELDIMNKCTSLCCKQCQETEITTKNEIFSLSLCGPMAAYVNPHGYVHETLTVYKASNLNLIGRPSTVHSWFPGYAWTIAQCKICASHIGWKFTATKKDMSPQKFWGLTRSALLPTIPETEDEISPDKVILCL
T1 sequence (Q3U1J4 whole entry partner, the tested form may be a part): as the sequence (Q16531 whole entry partner) above, with N418G, A495G, T745S, T1020A counted along it
T3 sequence (Q13422 whole entry): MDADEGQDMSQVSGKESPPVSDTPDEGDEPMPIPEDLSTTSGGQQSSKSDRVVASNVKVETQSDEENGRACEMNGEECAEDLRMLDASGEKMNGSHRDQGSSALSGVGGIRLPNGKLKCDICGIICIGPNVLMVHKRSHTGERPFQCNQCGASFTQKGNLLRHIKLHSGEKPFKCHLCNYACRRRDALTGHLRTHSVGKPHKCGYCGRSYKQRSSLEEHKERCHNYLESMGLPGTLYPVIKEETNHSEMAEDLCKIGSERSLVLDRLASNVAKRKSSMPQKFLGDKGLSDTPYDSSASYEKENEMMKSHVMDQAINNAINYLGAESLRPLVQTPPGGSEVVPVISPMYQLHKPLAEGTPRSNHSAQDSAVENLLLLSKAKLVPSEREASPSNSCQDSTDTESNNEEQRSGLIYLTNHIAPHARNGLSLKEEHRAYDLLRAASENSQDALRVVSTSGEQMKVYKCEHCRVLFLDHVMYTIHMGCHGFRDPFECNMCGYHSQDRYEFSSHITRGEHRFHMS
T3 sequence (Q96SW2 whole entry): as the sequence (Q96SW2 whole entry) above
T3 sequence (Q16531 whole entry partner): as the sequence (Q16531 whole entry partner) above

As for `CC(C)(C)c1ccc2c(c1)C(=O)N(C1CCC(=O)NC1=O)C2=O` (stereo not drawn) [Compound 19], the “Selectivity (WT/mutant)” value in experiment [1] (DC50(WT)/DC50(FEVP)) is recorded as 15.1. In experiment [1] (FEVP, Jurkat, 18 h), this molecule had a DC50 of 50.1 nM and a pDC50 of 7.30.
Consider `CN1CCN(c2ccc3c(c2)C(=O)N(C2CCC(=O)NC2=O)C3=O)CC1` (stereo not drawn) [Compound 23], for which, in experiment [2], the “WEIS-EGFP degradation in 3T3 mouse cells” value was “modest levels of WEIS-EGFP degradation”. Moreover, the DC50 in experiment [3] (time point 1 h) worked out at 10.3 nM; in experiment [3] (time point 6 h), 2.3 nM; in experiment [3] (time point 24 h), 18.3 nM. Further, the “degradation of endogenous IKZF1 (Western blot)” value on endogenous IKZF1 is given as “showed no degradation”. The “proteins degraded (quantitative proteomics)” value in experiment [4] was “did not induce any protein degradation”.
